In a melting point compilation (Tetko et al.; mined from patent text by program, amines drawn as free bases though some values may be those of a salt):

melting point [°C] | Structure (SMILES)
177 | OC(c1cccc(OCc2ccc3ccccc3n2)c1)(c1nccs1)C(F)(F)F (stereo not given)
116 to 117 | CN1C(=O)Cc2ccc(Cl)cc21
122 to 124 | Clc1ccc2nc(CN3CCN(c4ccc(Cl)c(Cl)c4)CC3)cn2c1
94 to 95 | CSC(=NCCN(C)C)NC#N
79 to 80 | Cc1ccc(CO[C@H]2CO[C@@H](c3ccccc3)OC2)cc1C
151 to 153 | CNc1cccc(C(C)=O)c1OCCCN1CCC(c2noc3cc(F)ccc23)CC1
96 to 98 | COc1cccc2c1CCC(C#N)C2O (stereo not given)
142 to 144 | Cc1ccc(S(=O)(=O)On2nnc3ccc([N+](=O)[O-])cc32)cc1
155 to 157 | O=S1N=C(NCCCN(Cc2ccsc2)c2ccccn2)C(NCc2ccncc2)=N1 (stereo not given)
177 to 179 | O=C(O)C(CCc1ccccc1[N+](=O)[O-])N1C(=O)c2ccccc2C1=O (stereo not given)
202 to 204 | Cc1ccc2c(NN)ccnc2c1NC(=O)c1c(Cl)cccc1Cl
128 to 130 | C=C(C)COc1ccc2c(C)cc(=O)oc2c1C(=O)C=Cc1cc(OC)c(OC)c(OC)c1
89 to 94 | CC(C)[C@@H](CO)NS(=O)(=O)c1ccc(Br)cc1
146 to 147 | CNC(=C[N+](=O)[O-])NCCSCC1(OC)C=CC=NC1 (stereo not given)
> 300 | O=c1nc(-c2ccc3c(c2)OCCO3)c2ccc3c(c2[nH]1)OCO3
111 to 112 | O=C1[C@H]2CCC[C@H]2N(C(=O)CCCCCBr)c2ccccc2N1Cc1ccccc1 (relative stereo)
171 to 172 | CC(C)(C)c1cc(CCc2ccccc2NC(=O)N2CCN(C(=O)c3cccnc3)CC2)cc(C(C)(C)C)c1O
97 to 99 | COC(=O)CCCNC(=O)CCCN(C(=O)c1cc(OC)c(OC)c(OC)c1)c1c(C)cccc1C
143 to 145 | CC(C)C1CC(=O)C(=C2CCCN2)C(=O)C1 (stereo not given)

melting point [°C] | Structure (SMILES)
88 to 90 | N#CC(C#N)=C1N(CCCCN2CCCCC2)CCN1CCCN1CCCCC1
174 to 177 | C#Cc1cccc(Nc2ncnc3ccc(-c4ccccc4C(=O)OCC)cc23)c1
195 to 200 | Cc1cc(C#N)sc1-c1ccc2c(c1)C(C)(C)OC(=O)N2
172 to 174 | CC(C)C1(c2ccccc2O)C(=O)N(C)c2ccccc21 (stereo not given)
80 to 81 | CCOC(=O)C1C(c2ccc(OC)cc2)=NCC1c1ccc2c(c1)OCO2 (stereo not given)
200 | COc1cccc2c1CCCC2=NNc1nc(-c2ccc(Cl)cc2Cl)cs1
179 to 181 | COc1ccc(-c2nc(Sc3ccc(C(F)(F)F)cc3)[nH]c2-c2ccc(OC)cc2)cc1
147 to 150 | CC(C)(C)OC(=O)Nc1cc(=O)c2cc(Oc3ccccc3)c(NS(C)(=O)=O)cc2o1
260 to 272 | O=Cc1ccc2c(c1)S(=O)(=O)c1ccccc1N2c1ccccc1
95 to 96 | Cc1c(Br)c(C)c(Cc2ccc(C(C)C)cc2)c2c1CCO2
62 to 64 | OC(CCCl)COc1ccc(Cl)cc1 (stereo not given)
146 to 147 | COc1nc2ccccc2cc1NC(=O)N1CCN(c2cccc(OCC3CC3)c2)CC1
185 | CNc1ccc([N+](=O)[O-])c(C(=O)NCC2CCN(C(c3ccccc3)c3ccccc3)CC2)c1
209 to 210 | O=C(O)C1Cc2c(c(Cl)cc3c(-c4cccc(F)c4)noc23)O1 (stereo not given)
169 to 170 | O=C1CCCC(=O)c2cc(OCc3ccccc3)ccc2N1
166 | Cc1nc2n(c(=O)c1CCN1CCC(C(=O)c3ccc(F)cc3)CC1)CCS2
133 to 137 | Cc1oc(=O)c(Nc2ccccc2)nc1Cl
68 to 70 | CN(Cc1ccccc1)S(=O)(=O)CC#N
172 to 174 | CNc1ccc(Oc2nc(OC)cc(OC)n2)c(C(=O)O)n1

Structure (SMILES) | melting point [°C]
N#Cc1nn(-c2c(Cl)cc(C(F)(F)F)cc2Cl)c(-n2cccc2)c1S(=O)C(F)(F)F (stereo not given) | 165 to 167
N#Cc1nn(-c2c(Cl)cc(C(F)(F)F)cc2Cl)cc1C1CC1(Br)Br (stereo not given) | 121 to 123
